Square brackets hold non-standard residues; d marks the D form. Peptide text beside a SMILES is read from it. pS = N[C@@H](COP(=O)(O)O)C(=O)O
Columns and labels:
[1] = molecular target: T1, Arabidopsis 14-3-3 isoform kappa (14-3-3κ) (Arabidopsis thaliana, UniProt P48348); test: biochemical; assay type: binding
T1 construct: Full-length At14-3-3-κ^1−248 (Uniprot-ID P48348, http://uniprot.org); thioredoxin A (trxA) fusion (N, cleaved yes); 8xHis (N, cleaved yes); StrepII (N, cleaved yes); made in house; host or cells: E. coli BL21 (DE3) RIL
T1 sequence (P48348 whole entry, the tested form may be a part, canonical isoform): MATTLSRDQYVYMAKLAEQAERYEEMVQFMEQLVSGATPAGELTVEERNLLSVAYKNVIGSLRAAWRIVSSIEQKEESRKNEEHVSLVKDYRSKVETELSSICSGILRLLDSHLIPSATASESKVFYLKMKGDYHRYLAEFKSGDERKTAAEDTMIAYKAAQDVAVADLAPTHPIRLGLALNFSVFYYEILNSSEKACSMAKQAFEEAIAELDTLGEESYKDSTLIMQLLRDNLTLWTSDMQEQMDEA
From the text: Full-length At14-3-3-κ^1−248 (Uniprot-ID P48348, http://uniprot.org), At14-3-3-λ^1−248 (P48349), At14-3-3-ω^1−259 (Q01525) or C-terminal truncated At14-3-3-κ^1−240, At14-3-3-λ^1−240 or At14-3-3-ω^1−237 isoforms and BIN2^7−380 from Arabidopsis were cloned from synthetic genes codon-optimized for expression in E. coli (Geneart, Thermofisher, Tauberbischofsheim, Germany) into vector pMH-HStrxT providing an N-terminal thioredoxin A (trxA) fusion protein containing 8xHis and StrepII affinity tags, and a tobacco etch virus protease (TEV) recognition site. Protein expression in E. coli BL21 (DE3) RIL grown to OD600nm= 0.6 was induced with 0.2 mM ispropyl β-D-galactoside in terrific broth at 16°C for 16 h. Cells were collected by centrifugation at 4500 × g for 30 min, washed in PBS buffer, centrifuged again at 4500 × g for 15 min and snap-frozen in liquid N2. For protein purification cells were resuspended in buffer A (20 mM Tris–HCl pH 8.0, 500 mM NaCl), and lysed by sonication (Branson DS450). The lysate was cleared by centrifugation at 7000 × g for 60 min and filtrated using a 0.45 µm molecular weight cutoff filter (Pall Corporation, Port Washington, NY, USA). The supernatant was loaded onto a Ni^2+ affinity column (HisTrap HP 5 mL, Cytiva Life Sciences, Freiburg im Breisgau, Germany), washed with buffer A and eluted in buffer A supplemented with 250 mM imidazole pH 8.0. […]

[2] = molecular target: T2, 14-3-3 ω (biotinylated dimer on streptavidin chip) (Arabidopsis thaliana, UniProt Q01525); test: Grating coupled interferometry (GCI) binding kinetics versus 14-3-3 ω; conditions: 25°C, 1-to-1 (2:2) binding model
T2 construct: Full-length At14-3-3-κ^1−248 (Uniprot-ID P48348, http://uniprot.org), At14-3-3-λ^1−248 (P48349), At14-3-3-ω^1−259 (Q01525); thioredoxin A (trxA) fusion (N, cleaved yes); 8xHis (N, cleaved yes); StrepII (N, cleaved yes); biotin (chemical, EZ-Link NHS-Biotin on amines); made in house; host or cells: E. coli BL21 (DE3) RIL
T2 sequence (Q01525 1-259): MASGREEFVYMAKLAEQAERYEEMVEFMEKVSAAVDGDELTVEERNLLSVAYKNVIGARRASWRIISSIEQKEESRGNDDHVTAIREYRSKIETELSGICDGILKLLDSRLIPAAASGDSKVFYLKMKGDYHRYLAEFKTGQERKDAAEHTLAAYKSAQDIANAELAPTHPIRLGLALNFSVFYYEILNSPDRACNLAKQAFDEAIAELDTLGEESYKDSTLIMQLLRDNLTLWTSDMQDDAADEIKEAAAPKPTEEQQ
Experimental: The binding kinetics of 14-3-3 ω versus the BZR1^169−175 and pBZR1^169−175 peptides (Table 1) were assessed on a Creoptix® WAVE system using a streptavidin-coated 4PCH WAVEchip® (long polycarboxylate matrix; Creoptix AG, Switzerland). Chips were first conditioned with 100 mM sodium borate pH 9.0, 1 m NaCl. Next, after the activation of the chip surface with a 1:1 mix of 400 mM N-(3-dimethylaminopropyl)-N’-ethylcarbodiimide hydrochloride and 100 mM N-[…] hydroxysuccinimide (Xantec, Germany), streptavidin was immobilized on the chip surface through the injection of 50 µg/ml streptavidin (ThermoFisher Scientific 43–4301) in 10 mM sodium acetate pH 5.0 until high density (∼10,000 pg/mm^2) was reached. Biotinylation of 14-3-3 ω for capturing onto streptavidin chip was performed by mixing equimolar amounts of protein and biotin (EZ-Link™ NHS-Biotin ThermoFisher Scientific). A total of 170 µM of 14-3-3 ω were incubated on ice with 170 µM of biotin (previously dissolved in water to 20 mM) for 1.5 min. The biotinylation was performed in 100 mM Hepes pH 8 and 150 mM NaCl. The biotinylated 14-3-3 ω dimer was purified by size exclusion chromatography in 20 mM Hepes pH 7.5 and 150 mM NaCl on a Superdex 10/300 increase column (Cytiva Life Sciences) to verify the homogeneity and to remove excess biotin. Gel-filtrated biotinylated 14-3-3 ω (0.45 mg/ml) was directly immobilized on the streptavidin-coated chip until a density of about 500 pg/ mm^2 was reached. The synthetic BRZ1^169−175 and pBZR1^169−175 peptides were dissolved in 20 mM Hepes and 150 mM NaCl buffer to a final concentration of 10 mM. Kinetic analysis of 14-3-3 ω and BZR1^169−175/pBZR1^169−175 interactions was performed at 25°C by flushing a dilution series of the analyte pBZR1 with a 2 dilution factor starting from 10 µM. Data analysis and data fitting were done using the Creoptix WAVEcontrol® software.

Compound | Kd [1] [µM] | Kd ([2]; Fig. 2D and text, read-out: KD, dissociation constant (GCI)) [µM] | kon ([2]; Fig. 2D, read-out: ka, association rate constant) [M⁻¹ s⁻¹] | koff ([2]; Fig. 2D, read-out: kd, dissociation rate constant) [s⁻¹]
CC(C)C[C@H](NC(=O)[C@H](CCC(=O)O)NC(=O)CNC(=O)[C@@H](N)CCCNC(=N)N)C(=O)N[C@@H](Cc1ccccc1)C(=O)N[C@@H](COP(=O)(O)O)C(=O)N[C@@H](C)C(=O)N1CCC[C@H]1C(=O)O [pBKI1^265-272] (H-RGELF[pS]AP-OH) | 15.9 ± 0.4 | – | – | –
CC[C@H](C)[C@H](NC(=O)[C@@H](N)CCCNC(=N)N)C(=O)N[C@@H](CO)C(=O)N[C@@H](CC(N)=O)C(=O)N[C@@H](COP(=O)(O)O)C(=O)N[C@@H](C)C(=O)N1CCC[C@H]1C(=O)O [pBZR1^169-175] (H-RISN[pS]AP-OH) | – | 0.52 | 1.67e+06 | 0.87

Reference: PMC11558545, “Mechanistic Insights into the Function of 14-3-3 Proteins as Negative Regulators of Brassinosteroid Signaling in Arabidopsis” (Plant and Cell Physiology, 2024)
